Key:
[1] = target: T1, OGA (Homo sapiens, UniProt O60502); assay: OGA cellular assay (ICC detection of O-GlcNAcylated proteins in HEK293 cells inducible for P301L mutant human Tau); assay type: cell-based; conditions: for Emax: HEK293, HEK293 cells inducible for P301L mutant human Tau; for Emax / Cellular Emax (%): maximal effect, Thiamet G 200 uM as maximum; for EC50 / Cellular Emax (%): HEK293 cells inducible for P301L mutant human Tau; for EC50: 6 hours incubation, read-out: Cellular hOGA, pEC50 (converted)
T1 construct: endogenous in cells; host or cells: HEK293 cells inducible for P301L mutant human Tau (2N4R)
T1 sequence (O60502 1-916): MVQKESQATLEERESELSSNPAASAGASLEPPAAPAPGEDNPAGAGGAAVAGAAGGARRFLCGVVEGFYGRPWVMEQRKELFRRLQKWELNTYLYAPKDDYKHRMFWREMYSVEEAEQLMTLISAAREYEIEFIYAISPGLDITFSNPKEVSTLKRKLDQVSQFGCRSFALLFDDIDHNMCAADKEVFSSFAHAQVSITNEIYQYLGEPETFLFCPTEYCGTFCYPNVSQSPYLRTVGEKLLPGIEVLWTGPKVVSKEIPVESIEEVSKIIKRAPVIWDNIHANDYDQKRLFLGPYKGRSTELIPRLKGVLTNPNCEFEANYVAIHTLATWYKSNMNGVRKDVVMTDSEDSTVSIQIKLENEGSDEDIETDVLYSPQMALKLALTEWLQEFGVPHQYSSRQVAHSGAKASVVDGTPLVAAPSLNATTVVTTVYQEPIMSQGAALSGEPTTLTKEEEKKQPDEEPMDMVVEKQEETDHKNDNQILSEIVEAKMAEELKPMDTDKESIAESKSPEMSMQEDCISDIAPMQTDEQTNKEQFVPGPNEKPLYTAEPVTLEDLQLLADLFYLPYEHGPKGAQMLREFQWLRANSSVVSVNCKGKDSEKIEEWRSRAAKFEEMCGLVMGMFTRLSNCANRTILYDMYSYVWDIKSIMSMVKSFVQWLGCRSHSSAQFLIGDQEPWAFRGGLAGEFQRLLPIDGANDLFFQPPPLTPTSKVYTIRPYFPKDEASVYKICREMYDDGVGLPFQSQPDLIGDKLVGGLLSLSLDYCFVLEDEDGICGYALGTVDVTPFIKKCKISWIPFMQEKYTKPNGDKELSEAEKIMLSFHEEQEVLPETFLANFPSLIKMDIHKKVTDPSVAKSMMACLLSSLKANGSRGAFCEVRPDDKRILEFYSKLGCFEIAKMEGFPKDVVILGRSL
Experimental: HEK293 cells inducible for P301L mutant human Tau (isoform 2N4R) were established at Janssen. Thiamet-G was used for both plate validation (high control) and as reference compound (reference EC50 assay validation). OGA inhibition is evaluated through the immunocytochemical (ICC) detection of O-GlcNAcylated proteins by the use of a monoclonal antibody (CTD110.6; Cell Signaling, #9875) detecting 0-GlcNAcylated residues as previously described (Dorfmueller et al. 2010 Chemistry & biology, 17:1250). Inhibition of OGA will result in an increase of O-GlcNAcylated protein levels resulting in an increased signal in the experiment. Cell nuclei are stained with Hoechst to give a cell culture quality control and a rough estimate of immediate compounds toxicity, if any. ICC pictures are imaged with a Perkin Elmer Opera Phenix plate microscope and quantified with the provided software Perkin Elmer Harmony 4.1.
Cells were propagated in DMEM high Glucose (Sigma, #D5796) following standard procedures. 2 days before the cell assay cells are split, counted and seeded in Poly-D-Lysine (PDL) coated 96-wells (Greiner, #655946) plate at a cell density of 12,000 cells per cm^2 (4,000 cells per well) in 100 μl of Assay Medium (Low Glucose medium is used to reduce basal levels of GlcNAcylation) (Park et al. 2014 The Journal of biological chemistry 289:13519). At the day of compound test medium from assay plates was removed and replenished with 90 μl of fresh Assay Medium. 10 μl of compounds at a 10 fold final concentration were added to the wells. Plates were centrifuged shortly before incubation in the cell incubator for 6 hours. DMSO concentration was set to 0.2%. Medium is discarded by applying vacuum. For staining of cells medium was removed and cells washed once with 100 μl D-PBS (Sigma, #D8537). From next step onwards unless other stated assay volume was always 50 μl and incubation was performed without agitation and at room temperature. Cells were fixed in 50 μl of a 4% paraformaldehyde (PFA, Alpha aesar, #043368) PBS solution for 15 minutes at room temperature. […] Before analysis samples were washed 2 times manually for 5 minutes in ICC base buffer.
Imaging is performed using Perkin Elmer Phenix Opera using a water 20× objective and recording 9 fields per well. Intensity readout at 488 nm is used as a measure of O-GlcNAcylation level of total proteins in wells. To assess potential toxicity of compounds nuclei were counted using the Hoechst staining. IC50-values are calculated using parametric non-linear regression model fitting. As a maximum inhibition Thiamet G at a 200 uM concentration is present on each plate. In addition, a concentration response of Thiamet G is calculated on each plate.

[2] = target: T2, recombinant human Meningioma Expressed Antigen 5 (MGEA5), also referred to as O-GlcNAcase (OGA) (Homo sapiens, UniProt O60502); assay: OGA biochemical assay (inhibition of FM-GlcNAc hydrolysis, fluorescence); conditions: for Emax / Enzymatic Emax (%): maximal effect; for Emax: read-out: Enzymatic Emax (%); for IC50: read-out: Enzymatic hOGA, pIC50 (converted)
T2 construct: Full length OGA enzyme was purchased at OnGene (cat #TP322411); purchased OnGene (so in the source)
T2 sequence (O60502 1-916): T1 sequence (O60502 1-916)
Outline: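 Full-length recombinant OGA (2 nM) pre-incubated with compound 60 min at room temperature, then FM-GlcNAc (100 µM final) added in citrate/phosphate buffer pH 7.2 with 0.005% Tween-20. After 6 h at room temperature, stopped with carbonate pH 11.0; fluorescein read at 485/538 nm; IC50 and Hill coefficient from curve fit.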

SMILES	Emax [1]	EC50 [1]	Emax [2]	IC50 [2]	Cellular Emax (%) [1]	Enzymatic Emax (%) [2]
Cc1cc([C@H]2CCCN(C(C)c3nc4c(cc3F)OCCO4)C2)cc(C)n1 (single isomer, unassigned) [Product 164]	86%	6.31 nM	100%	3.16 nM		
Cc1cc([C@@H]2CCCN(C(C)c3nc4c(cc3F)OCCO4)C2)cc(C)n1 (single isomer, unassigned) [Product 165]	80%	100 nM	100%	63.1 nM		
Cc1cc(CO[C@H]2CCCN(C(C)c3ccc4c(n3)OCCO4)C2)cc(C)n1 (single isomer, unassigned) [Product 167]		> 1000 nM		158 nM	26%	97%
Cc1cc(CC2(F)CCCN([C@H](C)c3nc4c(cc3F)OCCO4)C2)cc(C)n1 (single isomer, unassigned) [Product 174]	75%	63.1 nM	99%	6.31 nM		
Cc1cc(CC2(F)CCCN([C@H](C)c3ccc4c(n3)OCCO4)C2)cc(C)n1 (single isomer, unassigned) [Product 176]	69%	126 nM	99%	15.8 nM		
Cc1cc(CC2(F)CCCN([C@@H](C)c3ccc4c(n3)OCCO4)C2)cc(C)n1 (single isomer, unassigned) [Product 177]	-8%	> 1000 nM	81%	2510 nM		
Cc1cc(OC[C@H]2CCCN(C(C)c3nc4c(cc3F)CCO4)C2)cc(C)n1 (single isomer, unassigned) [Product 179]	72%	251 nM	100%	200 nM		
Cc1cc(OC[C@H]2CCCN(C(C)c3nc4c(cc3F)CCO4)C2)cc(C)n1 (single isomer, unassigned) [Product 180]		1 nM		1.58 nM	79%	99%
COc1cc(OC[C@H]2CCCN(C(C)c3ccc4c(n3)OCCO4)C2)cc(C)n1 (single isomer, unassigned) [Product 184]	-17%	> 1000 nM	87%	2000 nM		
Cc1cc([C@H]2CCCN([C@H](C)c3ccc4c(n3)OCCO4)C2)c(F)c(C)n1 (single isomer, unassigned) [Product 186]	-6%	> 1000 nM	83%	2000 nM		
Cc1cc(C2CCCN(C(C)c3ccc4c(n3)OCCO4)C2)cc(C)n1 (stereo not shown) [Product 1]	77%	100 nM	102%	20 nM		
COc1cc(C2CCCN(C(C)c3ccc4c(n3)OCCO4)C2)cc(C)n1 (stereo not shown) [Product 7]	77%	100 nM	103%	12.6 nM		
Cc1cc(C2CCCN(C(C)c3ccc4c(n3)OCCO4)C2)cc(C(F)(F)F)n1 (stereo not shown) [Product 8]	86%	200 nM	100%	15.8 nM		
COc1cc(C2CCCN(C(C)c3ccc4c(n3)OCCO4)C2)cc(C(F)(F)F)n1 (stereo not shown) [Product 10]	52%	977 nM	100%	25.1 nM		
Cc1cc(OC2CCCN(C(C)c3cnc4c(c3)OCCN4)C2)cc(C)n1 (stereo not shown) [Product 14]	60%	631 nM	101%	5.01 nM		
Cc1cc(OC2CCCN(C(C)c3cc4c(cc3F)OCCO4)C2)cc(C(F)(F)F)n1 (stereo not shown) [Product 15]	16%	> 1000 nM	103%	20 nM		
COc1cc(OC2CCCN(C(C)c3ccc4c(n3)OCCO4)C2)cc(C)n1 (stereo not shown) [Product 18]	57%	794 nM	100%	50.1 nM		
Cc1cc(NCC2CCCN(C(C)c3ccc4c(c3)OCC4)C2)cc(C)n1 (stereo not shown) [Product 22]	82%	7.94 nM	104%	7.94 nM		
COc1cc(NCC2CCCN(C(C)c3ccc4c(n3)OCCO4)C2)cc(C)n1 (stereo not shown) [Product 23]	81%	7.94 nM	100%	10 nM		

The remaining lines, values ahead:

Emax [1]	EC50 [1]	Emax [2]	IC50 [2]	Cellular Emax (%) [1]	Enzymatic Emax (%) [2]	SMILES
	100 nM	98%	10 nM	67%		Cc1cc(CO[C@H]2CCCN(C(C)c3ccc4c(n3)OCCO4)C2)cc(C)n1 (single isomer, unassigned) [Product 166]
	> 1000 nM	85%	2000 nM	−5%		Cc1cc(CO[C@H]2CCCN(C(C)c3nc4c(cc3F)OCCO4)C2)cc(C)n1 (single isomer, unassigned) [Product 169]
	12.6 nM		3.16 nM	79%	98%	Cc1cc(CO[C@H]2CCCN(C(C)c3nc4c(cc3F)OCCO4)C2)cc(C)n1 (single isomer, unassigned) [Product 170]
78%	2.51 nM	100%	2.51 nM			Cc1cc([C@H]2CCCN(C(C)c3nc4c(cc3F)CCO4)C2)cc(C)n1 (single isomer, unassigned) [Product 171]
1%	> 1000 nM	92%	1000 nM			Cc1cc(CC2(F)CCCN([C@@H](C)c3nc4c(cc3F)OCCO4)C2)cc(C)n1 (single isomer, unassigned) [Product 175]
65%	50.1 nM	99%	7.94 nM			COc1cc(OC[C@H]2CCCN([C@H](C)c3ccc4c(n3)OCCO4)C2)cc(C)n1 (single isomer, unassigned) [Product 183]
92%	50.1 nM	102%	10 nM			Cc1cc(C2CCCN(C(C)c3cc4c(cc3F)OCCO4)C2)cc(C(F)(F)F)n1 (stereo not shown) [Product 9]
70%	316 nM	103%	20 nM			COc1cc(C2CCCN(C(C)c3cc4c(cc3F)OCCO4)C2)cc(C(F)(F)F)n1 (stereo not shown) [Product 11]
88%	15.8 nM	103%	5.01 nM			Cc1cc(NCC2CCCN(C(C)c3ccc4c(n3)OCCO4)C2)cc(C)n1 (stereo not shown) [Product 21]

From patent US20210300943A1, “OGA INHIBITOR COMPOUNDS” (Janssen Pharmaceutica NV, priority 2018, published 2021)
